In patent publication US5883257A, “N-piperidinyl- and N-tetrahydropyridinyl-2-anthracenecarboxamides: dopamine receptor subtype specific ligands” (Neurogen Corporation, priority 1997, dated 1999):
Structures can show the parent of a compound that is named as a salt.

Columns and labels:
dopamine D3 receptor = dopamine D3 receptor (Chlorocebus aethiops, UniProt P52703); assay: D3 receptor binding assay (displacement of 3H-YM 09151-2); parameters: species or system African Green monkey; settings: 0.5 nM 3H-YM 09151-2; COS cells with recombinant D3 receptors; 0.05M Tris HCl, 100 mM NaCl; nonspecific: 1 mM spiperone
dopamine D2 receptor = dopamine D2 receptor (Chlorocebus aethiops, UniProt P52702); assay: D2 receptor binding assay (displacement of 3H-YM 09151-2); parameters: species or system African Green monkey; settings: 0.5 nM 3H-YM 09151-2; COS cells with recombinant D2 receptors; 0.05M Tris HCl, 100 mM NaCl; nonspecific: 1 mM spiperone
dopamine D2 receptor, sequence (P52702 whole entry): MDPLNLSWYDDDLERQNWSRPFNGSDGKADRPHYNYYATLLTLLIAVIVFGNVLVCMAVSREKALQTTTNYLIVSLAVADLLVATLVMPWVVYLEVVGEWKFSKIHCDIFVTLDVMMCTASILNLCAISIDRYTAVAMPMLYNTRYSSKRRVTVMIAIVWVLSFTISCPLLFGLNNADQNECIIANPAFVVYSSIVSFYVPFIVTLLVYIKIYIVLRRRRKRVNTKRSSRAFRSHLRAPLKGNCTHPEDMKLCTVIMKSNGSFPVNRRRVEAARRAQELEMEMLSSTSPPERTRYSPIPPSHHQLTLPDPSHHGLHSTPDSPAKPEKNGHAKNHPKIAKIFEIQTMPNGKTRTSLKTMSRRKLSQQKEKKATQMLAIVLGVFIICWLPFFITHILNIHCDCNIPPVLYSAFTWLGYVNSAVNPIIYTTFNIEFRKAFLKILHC

dopamine D3 receptor, sequence (P52703 whole entry): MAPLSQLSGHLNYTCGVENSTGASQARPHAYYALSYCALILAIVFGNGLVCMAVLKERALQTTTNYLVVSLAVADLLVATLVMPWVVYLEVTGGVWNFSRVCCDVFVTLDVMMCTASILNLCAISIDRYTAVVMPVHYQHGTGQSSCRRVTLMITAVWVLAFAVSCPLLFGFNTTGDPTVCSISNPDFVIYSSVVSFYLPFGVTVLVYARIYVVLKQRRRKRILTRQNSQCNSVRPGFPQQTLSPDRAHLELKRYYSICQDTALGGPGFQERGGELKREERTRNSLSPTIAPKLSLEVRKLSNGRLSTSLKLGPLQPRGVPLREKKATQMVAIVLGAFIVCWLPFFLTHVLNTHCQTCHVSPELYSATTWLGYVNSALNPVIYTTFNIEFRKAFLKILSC

Ki (dopamine D3 receptor) | Ki (dopamine D2 receptor) | Structure (SMILES)
7 nM | 1090 nM | O=C(NCCCCN1CCN(c2cccc(Cl)c2Cl)CC1)c1ccc2cc3ccccc3cc2c1 [Compound 1, N-{4-[4-(2,3-Dichlorophenyl)-1-piperazinyl]butyl}-2-anthracenecarboxamide]
1.2 nM | 550 nM | O=C(NCCCCN1CCN(c2cccc3ccccc23)CC1)c1ccc2cc3ccccc3cc2c1 [Compound 2, N-{4-[4-(1-Naphthyl)-1-piperazinyl]butyl}-2-anthracenecarboxamide hydrochloride]
